Molecular target: T1, FLK-1 receptor (Mus musculus, UniProt P35918)
T1 construct: expressed in transfected cells; host or cells: NIH3T3 C7#3
Test: FLK-1 ELISA (kinase activity of the FLK-1 receptor in FLK-1/NIH3T3 cells, VEGF stimulated)
Assay type: cell-based
Set-up: concentration or dose not given beside the values
Method in brief: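 NIH3T3 C7#3 cells expressing FLK-1 were seeded at 25.000 cells/well, serum-starved overnight in 0.1% FBS, then treated with compound for two hours at 37°C (final DMSO 0.5%) before VEGF stimulation. Receptor was captured on anti-rabbit IgG-coated ELISA plates bearing affinity-purified anti-FLK-1 antiserum.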

T1 sequence (P35918 20-1345): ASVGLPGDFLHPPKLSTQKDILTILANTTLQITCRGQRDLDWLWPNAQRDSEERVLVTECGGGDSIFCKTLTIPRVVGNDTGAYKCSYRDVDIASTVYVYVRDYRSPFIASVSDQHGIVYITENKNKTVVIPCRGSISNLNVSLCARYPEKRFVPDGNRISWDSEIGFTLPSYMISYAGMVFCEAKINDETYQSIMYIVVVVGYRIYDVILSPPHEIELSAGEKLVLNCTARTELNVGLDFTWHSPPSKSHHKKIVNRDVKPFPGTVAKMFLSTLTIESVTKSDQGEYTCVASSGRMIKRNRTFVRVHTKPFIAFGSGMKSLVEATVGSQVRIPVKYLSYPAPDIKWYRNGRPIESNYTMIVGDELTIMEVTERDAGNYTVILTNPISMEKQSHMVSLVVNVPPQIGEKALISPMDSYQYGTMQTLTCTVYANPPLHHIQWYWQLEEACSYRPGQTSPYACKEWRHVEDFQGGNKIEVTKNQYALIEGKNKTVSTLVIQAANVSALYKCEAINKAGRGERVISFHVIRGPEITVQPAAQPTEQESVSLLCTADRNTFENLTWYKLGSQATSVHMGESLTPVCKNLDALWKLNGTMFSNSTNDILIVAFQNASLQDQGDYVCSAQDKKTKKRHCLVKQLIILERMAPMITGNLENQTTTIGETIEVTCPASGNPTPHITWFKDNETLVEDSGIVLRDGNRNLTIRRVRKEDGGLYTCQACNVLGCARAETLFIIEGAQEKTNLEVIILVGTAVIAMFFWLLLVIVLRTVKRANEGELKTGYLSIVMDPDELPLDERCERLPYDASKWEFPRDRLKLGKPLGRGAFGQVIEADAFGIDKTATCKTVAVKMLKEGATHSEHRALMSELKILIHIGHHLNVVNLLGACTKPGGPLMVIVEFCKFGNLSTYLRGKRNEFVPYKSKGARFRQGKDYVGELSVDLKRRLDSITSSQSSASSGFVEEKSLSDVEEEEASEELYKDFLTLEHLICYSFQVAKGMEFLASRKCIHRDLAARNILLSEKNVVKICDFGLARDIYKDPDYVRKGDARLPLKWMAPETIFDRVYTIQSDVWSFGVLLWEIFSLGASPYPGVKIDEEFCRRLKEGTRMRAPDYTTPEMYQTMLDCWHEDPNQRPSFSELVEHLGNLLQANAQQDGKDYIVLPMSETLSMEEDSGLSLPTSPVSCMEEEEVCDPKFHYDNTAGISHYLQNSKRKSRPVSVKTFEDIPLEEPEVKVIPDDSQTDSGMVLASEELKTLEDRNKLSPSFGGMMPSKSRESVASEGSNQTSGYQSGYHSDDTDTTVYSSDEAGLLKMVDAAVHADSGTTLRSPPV

SMILES | Fik Kinase %Inhibition
CC(C)(C)c1cc(C=C2C(=O)Nc3ccc(S(=O)(=O)N4CCOCC4)cc32)cc(Cl)c1OCc1ccccc1 [10732/F10] | 14.1%
COc1c(I)cc(C=C2C(=O)Nc3ccc(S(=O)(=O)N4CCOCC4)cc32)cc1C(C)(C)C [10732/F11] | 21.9%
O=C1Nc2ccc(CCCl)cc2C1=CC(c1cccs1)C(F)(F)F (centres unmarked) [10732/G02] | 8.1%
COc1c(C(C)C)cc(C=C2C(=O)Nc3ccc(CCCl)cc32)cc1C(C)C [10732/G03] | 0.8%
CC(C)c1cc(C=C2C(=O)Nc3ccc(CCCl)cc32)cc(C(C)C)c1Oc1ccccc1 [10732/G04] | 12.6%
COc1ccc(C=C2C(=O)Nc3ccc(CCCl)cc32)cc1C(C)(C)C [10732/G05] | 17.2%
CC(C)(C)c1cc(C=C2C(=O)Nc3ccc(CCCl)cc32)ccc1OCc1ccccc1 [10732/G06] | 26.5%
COc1c(Br)cc(C=C2C(=O)Nc3ccc(CCCl)cc32)cc1C(C)(C)C [10732/G07] | 4.6%
CC(C)(C)c1cc(C=C2C(=O)Nc3ccc(CCCl)cc32)cc(Br)c1OCc1ccccc1 [10732/G08] | 10.0%
COc1c(Cl)cc(C=C2C(=O)Nc3ccc(CCCl)cc32)cc1C(C)(C)C [10732/G09] | 16.9%
CC(C)(C)c1cc(C=C2C(=O)Nc3ccc(CCCl)cc32)cc(Cl)c1OCc1ccccc1 [10732/G10] | 14.0%
COc1c(I)cc(C=C2C(=O)Nc3ccc(CCCl)cc32)cc1C(C)(C)C [10732/G11] | 10.9%
CC(C)(C)c1cc(C=C2C(=O)Nc3c(Br)cc(Br)cc32)cc(I)c1OCc1ccccc1 [10733/A02] | -5.2%
COc1c([N+](=O)[O-])cc(C=C2C(=O)Nc3c(Br)cc(Br)cc32)cc1C(C)(C)C [10733/A03] | 45.0%
COc1c(C(C)(C)C)cc(C=C2C(=O)Nc3c(Br)cc(Br)cc32)cc1C(C)(C)C [10733/A04] | -11.2%
CC(C)(C)c1cc(C=C2C(=O)Nc3c(Br)cc(Br)cc32)cc(C(C)(C)C)c1OCc1ccccc1 [10733/A05] | -23.3%
COc1c(C)cc(C=C2C(=O)Nc3c(Br)cc(Br)cc32)cc1C [10733/A06] | -16.6%
Cc1cc(C=C2C(=O)Nc3c(Br)cc(Br)cc32)cc(C)c1OCc1ccccc1 [10733/A07] | -27.4%
COc1cc(Br)cc(C=C2C(=O)Nc3c(Br)cc(Br)cc32)c1O [10733/A08] | -17.1%
O=C1Nc2c(Br)cc(Br)cc2C1=Cc1cc(Br)ccc1O [10733/A09] | -11.9%
O=C1Nc2c(Br)cc(Br)cc2C1=Cc1cc([N+](=O)[O-])ccc1O [10733/A10] | -9.3%
COc1c(O)ccc(C=C2C(=O)Nc3c(Br)cc(Br)cc32)c1[N+](=O)[O-] [10733/A11] | 15.0%
CC(C)(C)c1cc(C=C2C(=O)Nc3ccc(I)cc32)cc(I)c1OCc1ccccc1 [10733/B02] | -7.4%
COc1c([N+](=O)[O-])cc(C=C2C(=O)Nc3ccc(I)cc32)cc1C(C)(C)C [10733/B03] | 3.1%
COc1c(C(C)(C)C)cc(C=C2C(=O)Nc3ccc(I)cc32)cc1C(C)(C)C [10733/B04] | -3.3%
CC(C)(C)c1cc(C=C2C(=O)Nc3ccc(I)cc32)cc(C(C)(C)C)c1OCc1ccccc1 [10733/B05] | -1.1%
COc1c(C)cc(C=C2C(=O)Nc3ccc(I)cc32)cc1C [10733/B06] | 4.6%

SMILES | Fik Kinase %Inhibition
Cc1cc(C=C2C(=O)Nc3ccc(I)cc32)cc(C)c1OCc1ccccc1 [10733/B07] | 1.2%
COc1cc(Br)cc(C=C2C(=O)Nc3ccc(I)cc32)c1O [10733/B08] | -16.0%
O=C1Nc2ccc(I)cc2C1=Cc1cc(Br)ccc1O [10733/B09] | -2.6%
O=C1Nc2ccc(I)cc2C1=Cc1cc([N+](=O)[O-])ccc1O [10733/B10] | 5.7%
COc1c(O)ccc(C=C2C(=O)Nc3ccc(I)cc32)c1[N+](=O)[O-] [10733/B11] | 22.5%
Cc1c(Br)ccc2c1C(=Cc1cc(I)c(OCc3ccccc3)c(C(C)(C)C)c1)C(=O)N2 [10733/C02] | 5.8%
COc1c([N+](=O)[O-])cc(C=C2C(=O)Nc3ccc(Br)c(C)c32)cc1C(C)(C)C [10733/C03] | 17.0%
COc1c(C(C)(C)C)cc(C=C2C(=O)Nc3ccc(Br)c(C)c32)cc1C(C)(C)C [10733/C04] | 8.4%
Cc1c(Br)ccc2c1C(=Cc1cc(C(C)(C)C)c(OCc3ccccc3)c(C(C)(C)C)c1)C(=O)N2 [10733/C05] | 11.5%
COc1c(C)cc(C=C2C(=O)Nc3ccc(Br)c(C)c32)cc1C [10733/C06] | 4.7%
Cc1cc(C=C2C(=O)Nc3ccc(Br)c(C)c32)cc(C)c1OCc1ccccc1 [10733/C07] | 1.2%
COc1cc(Br)cc(C=C2C(=O)Nc3ccc(Br)c(C)c32)c1O [10733/C08] | -28.5%
Cc1c(Br)ccc2c1C(=Cc1cc(Br)ccc1O)C(=O)N2 [10733/C09] | -18.0%
Cc1c(Br)ccc2c1C(=Cc1cc([N+](=O)[O-])ccc1O)C(=O)N2 [10733/C10] | -7.6%
COc1c(O)ccc(C=C2C(=O)Nc3ccc(Br)c(C)c32)c1[N+](=O)[O-] [10733/C11] | 42.8%
CNS(=O)(=O)c1ccc2c(c1)C(=Cc1cc(I)c(OCc3ccccc3)c(C(C)(C)C)c1)C(=O)N2 [10733/D02] | 3.1%
CNS(=O)(=O)c1ccc2c(c1)C(=Cc1cc([N+](=O)[O-])c(OC)c(C(C)(C)C)c1)C(=O)N2 [10733/D03] | 33.2%
CNS(=O)(=O)c1ccc2c(c1)C(=Cc1cc(C(C)(C)C)c(OC)c(C(C)(C)C)c1)C(=O)N2 [10733/D04] | 15.5%
CNS(=O)(=O)c1ccc2c(c1)C(=Cc1cc(C(C)(C)C)c(OCc3ccccc3)c(C(C)(C)C)c1)C(=O)N2 [10733/D05] | 16.5%
CNS(=O)(=O)c1ccc2c(c1)C(=Cc1cc(C)c(OC)c(C)c1)C(=O)N2 [10733/D06] | 17.9%
CNS(=O)(=O)c1ccc2c(c1)C(=Cc1cc(C)c(OCc3ccccc3)c(C)c1)C(=O)N2 [10733/D07] | -1.4%
CNS(=O)(=O)c1ccc2c(c1)C(=Cc1cc(Br)cc(OC)c1O)C(=O)N2 [10733/D08] | -8.3%
CNS(=O)(=O)c1ccc2c(c1)C(=Cc1cc(Br)ccc1O)C(=O)N2 [10733/D09] | 9.8%
CNS(=O)(=O)c1ccc2c(c1)C(=Cc1cc([N+](=O)[O-])ccc1O)C(=O)N2 [10733/D10] | 2.9%
CNS(=O)(=O)c1ccc2c(c1)C(=Cc1ccc(O)c(OC)c1[N+](=O)[O-])C(=O)N2 [10733/D11] | 1.0%
CC(C)(C)c1cc(C=C2C(=O)Nc3ccc(S(=O)(=O)Nc4ccc(C(F)(F)F)cc4)cc32)cc(I)c1OCc1ccccc1 [10733/E02] | 0.8%
